Test results: US20090298889A1, “PHARMACEUTICAL COMPOSITIONS CONTAINING 2-PYRIDONE DERIVATIVES AS EFFECTIVE COMPONENTS” (SATO PHARMACEUTICAL CO., LTD., priority 2005, published 2009)

How the values were obtained:
[1] = Toxicity test by administration of one time (single dose); conditions: mouse, in vivo
Excerpt: Test Animals Used: ICR Male Mice (5-Week-Old):
They were purchased and then preliminarily kept over one week, prior to the practical use thereof in this test.
Each test group comprised 5 animals.
Inspected Items: Appearance (such as death, weakening); Physical Conditions (such as the presence of lateral turning); Consciousness (such as excitation, lethargy (coma)); Behaviors (such as convulsions); Properties of fecal matters; and Foreign matters present in the urine.

[2] = test system: neutrophil infiltration (MPO activity); assay: Effect on zymosan-induced neutrophil infiltration (MPO activity of peritoneal fluid); format: in vivo, ICR mice; conditions: 30 mg/kg body weight orally, FIG. 1; for MPO activity with respect to the vehicle: 1 hour before intra-peritoneal zymosan, peritoneal fluid after 3 hours
Description: Each candidate compound was administered to 6-week-old male ICR mice, which had been fasted from the day before the initiation of this test. Each candidate compound was suspended in a 3% dimethylsulfoxide/carboxymethyl cellulose sodium solution and the resulting suspension was administered to the mice at a dose of 30 mg/kg body weight/10 mL. After the elapse of one hour, 1 mL of a 0.01% solution of zymosan in physiological saline was intra-peritoneally administered. After 3 hours, 5 mL of physiological saline was intra-peritoneally administered and the test animals were lightly massaged for 30 seconds. The abdominal wall of the test animals were slightly incised to thus collect the peritoneal fluid using a Pasteur pipette. Thereafter, the fluid thus recovered was centrifuged (at 20,000 g, for 20 minutes, at 4° C.), the resulting pellets were washed with a 50 mM sodium phosphate buffer (pH 6.0) and then again centrifuged. To the pellets thus recovered, there was added 0.5% hexadecyl trimethyl ammonium bromide (HTAB) and then centrifuged to thus give a supernatant, which was subsequently used as an enzyme source. To 15 μL of the enzyme source, there were added 200 μL of a 1.154 mM o-di-anisidine and 50 μL of a 0.005% hydrogen peroxide solution and then the optical densities at 450 nm (OD450) were determined to thus calculate the difference: (OD450 observed after 90 seconds from the initiation of the reaction)−(OD450 observed after 30 seconds from the initiation of the reaction), which was herein defined to be MPO activity. In this connection, the MPO activity was calculated, while defining the activity required for increasing the OD450 value by 0.001 as one unit. The MPO activity is herein defined to be the activity of the enzyme present in the neutrophils and accordingly, the reduction in the MPO activity means the inhibition of the neutrophil-infiltration. The results thus obtained are plotted on FIG. 1. […]

[3] = test system: neutrophils; assay: Test for examining cell adhesion-inhibitory effect (TNF-α-stimulated neutrophil adhesion to keyhole limpet hemocyanin-coated plate, Alamar blue fluorescence); format: cell-based, human (healthy person); conditions: 0.5 h, human neutrophils stimulated with TNF-α 10 ng/mL, 37° C. 30 minutes, Probit technique, read-out: IC50 (50%-inhibitory concentration of cell adhesion)
Description: To a 96-well culture plate coated, in advance, with keyhole limpet hemocyanin, there was added 0.05 mL each of a solution of a candidate test compound in dimethylsulfoxide diluted to a final dimethylsulfoxide concentration of 1% with DMEM. A blood sample was collected from a healthy person through the median vein of elbow and the neutrophils were fractionated or isolated through the use of Mono-Poly Separation Liquid and the centrifugation. The fractionated neutrophils were suspended in DMEM to a concentration of 1×10^6 cells/mL and 0.1 mL of the resulting neutrophil-containing suspension was added to each well of the culture plate. Moreover, 40 ng/mL of tumor-necrosis factor (TNF)-α was diluted with DMEM to a final concentration of 10 ng/mL and 0.05 mL of the resulting diluted solution was added to each well of the culture plate. After the culture plate was allowed to stand at 37° C. for 30 minutes in a CO2-incubator, the plate was washed three times (thrice) with 0.2 mL of phosphate-buffered physiological saline (PBS(−), available from GIBCO Corporation). In addition, to each well, there was added 0.1 mL of a 10% solution of Alamar blue in DMEM, the culture plate was allowed to stand at 37° C. for 3 hours in a CO2-incubator, and then the intensity of fluorescent rays emitted from the adhered neutrophil cells was determined (Ex: 544 nm; Em: 590 nm). In this respect, the sample group free of any stimulation was defined to be the non-adhesion control group and the sample group stimulated with TNF-α was referred to as the adhesion control group to thus determine or calculate the cell adhesion-inhibitory rate of the compound of the present invention at each concentration, and the 50%-inhibitory concentration (IC50) was calculated from the cell adhesion-inhibitory rates thus determined according to the Probit technique. The same test procedures used above were repeated except for using different kinds of candidate compounds.

CC(=O)c1cn(-c2ccccc2)c(=O)c(Sc2ccc(F)cc2)c1C [Compound 1, 5-acetyl-3-(4-fluorophenylthio)-4-methyl-1-phenyl-1H-pyridin-2-one]
Result of single dose toxicity test (death, severe side-effect) [1]: All of the test animals were not died | MPO activity with respect to the vehicle [2]: decreases in the MPO activity | IC50 [3]: 400 nM

CC(=O)c1c[nH]c(=O)c(Sc2ccc(F)cc2)c1C [Compound 42, 5-acetyl-3-(4-fluoro-phenylthio)-4-methyl-1H-pyridin-2-one]
melting point: 236 to 238 °C

CC(=O)c1c(C)c(Sc2ccc(F)cc2)c(=O)n(-c2ccccc2)c1C [Compound 62, 5-acetyl-3-(4-fluoro-phenylthio)-4,6-dimethyl-1-phenyl-1H-pyridin-2-one]
MPO activity with respect to the vehicle [2]: decreases in the MPO activity | neutrophil infiltration-inhibitory effect ([2]; zymosan-induced model): excellent neutrophil infiltration-inhibitory effects | IC50 [3]: 569 nM

CC(=O)c1cn(-c2ccccc2)c(=O)c(Br)c1C [Compound 70, 5-acetyl-3-bromo-4-methyl-1-phenyl-1H-pyridin-2-one]
melting point: 166.5 to 167.4 °C

CC(=O)c1cn(-c2ccccc2)c(=O)c(C#N)c1C [Compound 71, 5-acetyl-4-methyl-2-oxo-1-phenyl-1,2-di-hydro-pyridine-3-carbonitrile]
melting point: 215.4 to 216.8 °C

CC(=O)c1cn(-c2ccccc2)c(=O)c(Sc2ncccn2)c1C [Compound 74, 5-Acetyl-4-methyl-1-phenyl-3-(pyrimidin-2-yl-thio)-1H-pyridin-2-one]
melting point: 184.5 to 185.3 °C

Cc1c(C(C)O)cn(-c2ccccc2)c(=O)c1Sc1ccc(F)cc1 (stereo not drawn) [Compound 77, 3-(4-Fluoro-phenylthio)-5-(1-hydroxyethyl)-4-methyl-1-phenyl-1H-pyridin-2-one]
IC50 [3]: 980 nM

CCc1cn(-c2ccccc2)c(=O)c(Sc2ccc(F)cc2)c1C [Compound 80, 5-Ethyl-3-(4-fluoro-phenylthio)-4-methyl-1-phenyl-1H-pyridin-2-one]
melting point: 116.8 to 118.7 °C
